Measured values: paper PMC7185853 (Fish & Shellfish Immunology, 2015)

System: VHSV
Experiment: Inhibition of in vitro VHSV infection of ZF4 cells
Type: cell-based, viral haemorrhagic septicemia virus VHSV- 07.71
Settings: for VHSV-inhibiting concentrations lower than those of the SERPINe1-derived peptide: ZF4 cells, duplicates (Fig. 3)

| Molecule | VHSV-inhibiting concentrations lower than those of the SERPINe1-derived peptide [fold] | Inhibition of VHSV infectivity in vitro (68 μg per ml (∼40 μM), ZF4 cells (Fig. 3)) [%] |
| --- | --- | --- |
| O=C(O)C(=O)c1cn(Cc2ccccc2)c2ccc(-c3ccc(OC(F)(F)F)cc3)cc12 [tiplaxtinin] | ~50 | – |
| O=C(O[C@@H]1Cc2c(O)cc(O)cc2O[C@@H]1c1cc(O)c(O)c(O)c1)c1cc(O)c(O)c(O)c1 [EGCG] | ~50 | – |
| tannic acid | ~50 | ~95 |
